{"source": "patent US5565342A", "about": "(priority 1989, dated 1996)", "key": {"RON substance synthetase [1]": {"tested_on": "RON substance synthetase", "test": "Inhibition and activation of the enzyme by metal chlorides", "type": "biochemical, Leuconostoc mesenteroides subsp. dextranicum, BL-75", "details": "1 mM metal chloride; not added = 100; 30 min", "experimental": "A substrate solution comprising sucrose (60 w/v %) and an acetate buffer (0.3M, pH 5.5), which was warmed to 30° C. in advance, was mixed with an enzyme solution (0.5 to 1 U/ml) warmed to 30° C. in an amount 4 times the amount of the substrate solution, and the mixture was sufficiently stirred and the reaction was carried out at 30° C. for 30 minutes. To the reaction mixture a 40 mM of NaOH solution was added in an amount 5 times of the amount of the reaction mixture to stop the reaction. The reaction-stopped mixture was appropriately diluted and reducing sugar was determined as fructose by the Somogyi method [M. Somogyi, J. Biol. Chem., 160, 61 (1945)]. As the control, reducing sugar in the enzyme reaction-stopped mixture treated in the same manner without adding sucrose was determined as fructose, and correction was carried out. The quantity of sucrose participating in the reaction was determined from the quantity of fructose.\nThe relative activities at the addition of the different metal chlorides in the final concentration of 1 mM were determined by the standard method. The relative value was expressed in percent comparing with the activity without addition of any metal chloride."}, "RON substance synthetase [2]": {"tested_on": "RON substance synthetase", "test": "Substrate specificity of the enzyme", "type": "biochemical, Leuconostoc mesenteroides subsp. dextranicum, BL-75", "details": "as substrate of the enzyme"}}, "data": [{"compound": "[Cl-].[Cl-].[Mg+2]", "note": "[MgCl2]", "values": [{"measurement": "Relative Activity", "setting": "RON substance synthetase [1]", "result": 78, "unit": "%"}]}, {"compound": "[Cl][Cu][Cl]", "note": "[CuCl2]", "values": [{"measurement": "Relative Activity", "setting": "RON substance synthetase [1]", "result": 50, "unit": "%"}]}, {"compound": "[Cl][Mn][Cl]", "note": "[MnCl2]", "values": [{"measurement": "Relative Activity", "setting": "RON substance synthetase [1]", "result": 75, "unit": "%"}]}, {"compound": "OC[C@H]1O[C@H](O[C@H]2[C@H](O)[C@@H](O)C(O)O[C@@H]2CO)[C@H](O)[C@@H](O)[C@@H]1O", "note": "(mixture of isomers) [maltose]", "values": [{"measurement": "Formation of the RON substance (substrate specificity)", "setting": "RON substance synthetase [2]", "result": "not observed"}]}, {"compound": "[Cl][Fe]([Cl])[Cl]", "note": "[FeCl3]", "values": [{"measurement": "Relative Activity", "setting": "RON substance synthetase [1]", "result": 82, "unit": "%"}]}, {"compound": "[Cl][Fe][Cl]", "note": "[FeCl2]", "values": [{"measurement": "Relative Activity", "setting": "RON substance synthetase [1]", "result": 103, "unit": "%"}]}, {"compound": "OC[C@H]1OC(O)[C@H](O)[C@@H](O)[C@@H]1O", "note": "(some centres unmarked) [glucose]", "values": [{"measurement": "Formation of the RON substance (substrate specificity)", "setting": "RON substance synthetase [2]", "result": "not observed"}]}, {"compound": "OC[C@H]1O[C@H](OC[C@H]2OC(O)[C@H](O)[C@@H](O)[C@@H]2O)[C@H](O)[C@@H](O)[C@@H]1O", "note": "(some centres unmarked) [isomaltose]", "values": [{"measurement": "Formation of the RON substance (substrate specificity)", "setting": "RON substance synthetase [2]", "result": "not observed"}]}, {"compound": "[Cl-].[Cl-].[Co+2]", "note": "[CoCl2]", "values": [{"measurement": "Relative Activity", "setting": "RON substance synthetase [1]", "result": 95, "unit": "%"}]}, {"compound": "[Ca+2].[Cl-].[Cl-]", "note": "[CaCl2]", "values": [{"measurement": "Relative Activity", "setting": "RON substance synthetase [1]", "result": 110, "unit": "%"}]}, {"compound": "O=C(CO)[C@@H](O)[C@H](O)[C@H](O)CO", "note": "[fructose]", "values": [{"measurement": "Formation of the RON substance (substrate specificity)", "setting": "RON substance synthetase [2]", "result": "not observed"}]}, {"compound": "[Cl-].[Cl-].[Zn+2]", "note": "[ZnCl2]", "values": [{"measurement": "Relative Activity", "setting": "RON substance synthetase [1]", "result": 93, "unit": "%"}]}, {"compound": "[Cl][Ni][Cl]", "note": "[NiCl2]", "values": [{"measurement": "Relative Activity", "setting": "RON substance synthetase [1]", "result": 98, "unit": "%"}]}, {"compound": "OC[C@H]1O[C@@](CO)(O[C@H]2O[C@H](CO)[C@@H](O)[C@H](O)[C@H]2O)[C@@H](O)[C@@H]1O", "note": "[sucrose]", "values": [{"measurement": "Formation of the RON substance (substrate specificity)", "setting": "RON substance synthetase [2]", "result": "reacts only with sucrose"}]}]}
